Values joined by “and” are separate entries in the source; they are usually repeats but may differ in a detail not shown here. Equal entries are not always repeated.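 Growth conditions: 96-well plates. Treatment: test compound, 48 hours, 5 concentrations. Analysis: linear interpolation between bracketing concentrations; unreached endpoints set to highest concentration. GI50 is the concentration that inhibits growth by half. TGI: concentration producing complete growth inhibition.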
Key:
Assay in all cases: growth of human tumour cells (NCI), 48 h
[1] = tested on: A549 NSCLC
[2] = tested on: HCC-2998 colon
[3] = tested on: HCT-116 colon
[4] = tested on: HL-60(TB) leukemia
[5] = tested on: HT29 colon
[6] = tested on: NCI-H522 lung
[7] = tested on: OVCAR-8 ovarian
[8] = tested on: SK-OV-3 ovarian
[9] = tested on: SNB-19 CNS
[10] = tested on: U251 CNS

SMILES	TGI [1]	TGI [2]	TGI [3]	TGI [4]	TGI [5]	TGI [6]	TGI [7]	TGI [8]	TGI [9]	TGI [10]	GI50 [1]	GI50 [2]	GI50 [3]	GI50 [4]	GI50 [5]	GI50 [6]	GI50 [7]	GI50 [8]	GI50 [9]	GI50 [10]
C/C(=C\c1ccccc1)C(O)S(=O)(=O)O (stereo unspecified)	> 100 µM	> 100 µM	> 100 µM	> 100 µM	> 100 µM	> 100 µM	> 100 µM	> 100 µM	> 100 µM	> 100 µM	–	–	–	–	–	–	–	–	–	–
Cc1cc(Cl)ccc1N1C(=O)C(=O)C(c2nc3ccccc3s2)/C(=N\NC(=O)c2ccccc2O)C1=O (stereo unspecified)	> 100 µM	> 100 µM	> 100 µM	> 100 µM	> 100 µM	> 100 µM	> 100 µM	> 100 µM	> 100 µM	> 100 µM	–	–	–	–	–	–	–	–	–	–
COc1cc(C(C)c2cc3c(cc2OCCOCCOc2cc4c(cc2C(C)c2cc(OC)c(OC)c(OC)c2)OCO4)OCO3)cc(OC)c1OC (stereo unspecified)	> 100 µM	> 100 µM	> 100 µM	> 100 µM	> 100 µM	> 100 µM	> 100 µM	> 100 µM	> 100 µM	> 100 µM	> 100 µM	> 100 µM	> 100 µM	> 100 µM	> 100 µM	> 100 µM	> 100 µM	> 100 µM	> 100 µM	> 100 µM
NCC(=O)OCN1C(=O)C2C3C=CC(C2C1=O)C1C2C(=O)N(COC(=O)CN)C(=O)C2C31 (stereo unspecified)	63.7 µM and 60.6 µM	94.8 µM and > 100 µM	33.6 µM and 30.7 µM	28.5 µM and 37.4 µM	> 100 µM	25.9 µM	47.4 µM and 39 µM	> 100 µM	> 100 µM	45 µM and 38.7 µM	–	31.2 µM and 69.9 µM	–	–	–	–	–	–	–	–
CNC1=C(Br)C(=O)C2=C(C1=O)C1C3=C(C(=O)C=CC3=O)C2c2ccccc21 (stereo unspecified)	–	11.4 µM	2.86 µM	> 100 µM	> 100 µM	> 22.4 µM	8.93 µM	> 55.2 µM	67.4 µM	5.01 µM	3.02 µM	3.74 µM	1.44 µM	2.18 µM	2.72 µM	6.7 µM	2.99 µM	10.3 µM	14.4 µM	2.12 µM
CCOc1ccccc1N=C(NC(=O)CC)SC	> 100 µM	> 100 µM	> 100 µM	> 100 µM	> 100 µM	> 100 µM	> 100 µM	> 10 µM	> 100 µM	> 100 µM	> 100 µM	> 100 µM	> 10 µM	> 100 µM	> 100 µM	> 100 µM	> 10 µM	–	> 100 µM	> 100 µM
CC1=C(CC/C(C)=C/CCC2(C)CCC([C@H](C)C(=O)O)OO2)C(C)(C)CCC1 (stereo partly specified) (tested in a mixture with another compound)	> 100 µM	> 100 µM	> 100 µM	> 100 µM	> 100 µM	> 100 µM	> 100 µM	–	> 100 µM	> 100 µM	–	–	–	–	–	–	–	–	–	–
O=C1c2ccccc2C(=O)N1C/C=N/NS(=O)(=O)c1ccc(Cl)cc1	> 100 µM	> 100 µM	> 100 µM	> 100 µM	> 100 µM	> 100 µM	> 100 µM	–	> 100 µM	> 100 µM	–	–	–	–	–	–	–	–	–	–
CC(C)(C)c1cc2c(OP(c3ccccc3)c3ccccc3)c(c1)Cc1cc(C(C)(C)C)cc(c1OP(c1ccccc1)c1ccccc1)Cc1cc(C(C)(C)C)cc(c1OP(c1ccccc1)c1ccccc1)Cc1cc(C(C)(C)C)cc(c1OP(c1ccccc1)c1ccccc1)C2	> 50 µM	> 50 µM	> 5 µM	> 50 µM	> 50 µM	> 50 µM	> 50 µM	> 50 µM	> 50 µM	> 50 µM	> 50 µM	> 50 µM	–	> 50 µM	47.8 µM	44.6 µM	> 50 µM	> 50 µM	> 50 µM	> 50 µM
CC(=O)OC1C(O)COC(Oc2c(C)c3c4c(c2O)[C@@H](C)CC[C@@H]4[C@@H](C)C[C@H]3C=C(C)C)C1O (stereo partly specified)	40.3 µM	43.6 µM	> 100 µM	–	–	> 100 µM	49.8 µM	39.2 µM	49.6 µM	35 µM	16 µM	18.7 µM	21.1 µM	–	–	30.9 µM	23 µM	19.6 µM	23.4 µM	18 µM
CCN(CC)CCNc1ccc(CO)c2sc3ccccc3c(=O)c12	13.6 µM and 21.4 µM and 18.2 µM	25.2 µM [middle of 4 runs]	–	24.5 µM [middle of 4 runs]	–	–	14 µM and 17.8 µM	–	29.1 µM [middle of 4 runs]	23.7 µM [middle of 4 runs]	3.2 µM	–	4.28 µM	8.47 µM [middle of 4 runs]	–	1.48 µM and 8.14 µM	2.42 µM	–	3.54 µM and 13.3 µM and 14.1 µM	3.97 µM and 12.6 µM
COc1ccccc1NC(=O)N/C(N)=N/c1nc2ccccc2s1	> 100 µM	> 100 µM	> 100 µM	0.436 µM	> 100 µM	–	> 100 µM	> 100 µM	> 100 µM	> 100 µM	0.107 µM	0.375 µM	0.0497 µM	0.0827 µM	0.0389 µM	0.025 µM	0.262 µM	0.476 µM	0.0607 µM	0.0655 µM
O=C(Oc1ccccc1Cl)c1cccnc1Nc1ccnc(C(F)(F)F)c1	> 100 µM	30 µM	4.35 µM	–	71.5 µM	23.3 µM	47 µM	> 100 µM	70.1 µM	32.9 µM	30.2 µM	15.6 µM	2.13 µM	–	25.3 µM	6.6 µM	14.7 µM	36.9 µM	23.4 µM	17.6 µM
COc1ccc(-c2ccc(=O)oc2-c2cc(OC)c(OC)c(OC)c2)cc1O	> 100 µM	0.426 µM	> 100 µM	0.0705 µM	–	0.0944 µM	> 100 µM	> 100 µM	> 100 µM	> 100 µM	0.0595 µM	0.0379 µM	0.0242 µM	0.0208 µM	0.663 µM	0.0124 µM	0.0498 µM	0.0307 µM	0.0571 µM	0.0286 µM

From PubChem BioAssay (NCI)
